Columns and labels:
Test in all cases: Test C postemergence
Assay type in all cases: in vivo
[1] = system: pigweed (Amaranthus retroflexus); details: Amaranthus retroflexus, post-emergence, 336 h, Postemergence, scale 0 to 100, read-out: Plant response rating, Pigweed
Method in brief: (§1)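 Seeds sown in a loam soil and sand blend were treated preemergence; plants in peat-moss/vermiculite medium were sprayed at the 1- to 4-leaf stage (2-18 cm). Chemicals were in a non-phytotoxic surfactant-containing solvent. After 13 to 15 days in a greenhouse, injury was visually rated against controls on a 0-100 scale.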

[2] = system: velvetleaf (Abutilon theophrasti); details: Abutilon theophrasti, post-emergence, Postemergence, scale 0 to 100, read-out: Plant response rating, Velvetleaf
Method in brief: as §1

[3] = system: ragweed (common ragweed, Ambrosia elatior); details: Ambrosia artemisiifolia, post-emergence, 336 h, Postemergence, scale 0 to 100, read-out: Plant response rating, Ragweed
Method in brief: as §1

[4] = system: chickweed (common chickweed, Stellaria media); details: Stellaria media, post-emergence, Postemergence, scale 0 to 100, read-out: Plant response rating, Chickweed
Method in brief: as §1

[5] = system: winter wheat (Triticum aestivum); details: Triticum aestivum, post-emergence, 336 h, Postemergence, scale 0 to 100, read-out: Plant response rating, Wheat
Method in brief: as §1

corn (Zea mays) = details: Zea mays, post-emergence, 336 h, Postemergence, scale 0 to 100
Method in brief: as §1

[6] = system: oilseed rape (Brassica napus); details: Brassica napus, post-emergence, Postemergence, scale 0 to 100, read-out: Plant response rating, Oilseed Rape
Method in brief: as §1

soybean (Glycine max) = details: Glycine max, post-emergence, Postemergence, scale 0 to 100, read-out: Plant response rating, Soybean
Method in brief: as §1

[7] = system: morningglory (Ipomoea coccinea); details: Ipomoea, post-emergence, 336 h, Postemergence, scale 0 to 100, read-out: Plant response rating, Morningglory
Method in brief: as §1

[8] = system: barnyardgrass (Echinochloa crus-galli); details: Echinochloa crus-galli, post-emergence, Postemergence, scale 0 to 100, read-out: Plant response rating, Barnyardgrass
Method in brief: as §1

[9] = system: johnsongrass (Sorghum halepense); details: Sorghum halepense, post-emergence, 336 h, Postemergence, scale 0 to 100, read-out: Plant response rating, Johnsongrass
Method in brief: as §1

Compound N#Cc1cccc(Oc2ncc(Cl)cn2)c1Oc1ncc(Cl)cn1 [Compound 3, 2,3-bis[(5-chloro-2-pyrimidinyl)oxy]benzonitrile] has a pest or weed control at 31 g/ha ([1]; 31 g ai/ha) of 75%, a pest or weed control at 62 g/ha ([1]; 62 g ai/ha) of 80% and a pest or weed control at 125 g/ha ([1]; 125 g ai/ha) of 90%. For the same compound, the pest or weed control at 250 g/ha ([1]; 250 g ai/ha) was 100%, the pest or weed control at 31 g/ha ([2]; 31 g ai/ha) was 35% and the pest or weed control at 62 g/ha ([2]; 62 g ai/ha) was 70%. For the same compound, the pest or weed control at 125 g/ha ([2]; 125 g ai/ha) was 70%, the pest or weed control at 250 g/ha ([2]; 250 g ai/ha) was 80% and the pest or weed control at 31 g/ha ([3]; 31 g ai/ha) was 50%. The pest or weed control at 62 g/ha ([3]; 62 g ai/ha) was 55%, the pest or weed control at 125 g/ha ([3]; 125 g ai/ha) was 60% and the pest or weed control at 250 g/ha ([3]; 250 g ai/ha) was 85%. It also gave a pest or weed control at 31 g/ha ([4]; 31 g ai/ha) of 50%, a pest or weed control at 62 g/ha ([4]; 62 g ai/ha) of 85% and a pest or weed control at 125 g/ha ([4]; 125 g ai/ha) of 90%. It also gave a pest or weed control at 250 g/ha ([4]; 250 g ai/ha) of 95%, a plant injury at 31 g/ha ([5]; 31 g ai/ha) of 0% and a plant injury at 62 g/ha ([5]; 62 g ai/ha) of 0%. It also gave a plant injury at 125 g/ha ([5]; 125 g ai/ha) of 10%, a plant injury at 250 g/ha ([5]; 250 g ai/ha) of 15% and a Corn plant response rating (crop injury, 0 = no effect, 100 = complete kill) at 31 g/ha (corn (Zea mays); 31 g ai/ha) of 10%. It also gave a Corn plant response rating (crop injury, 0 = no effect, 100 = complete kill) at 62 g/ha (corn (Zea mays); 62 g ai/ha) of 35%, a Corn plant response rating (crop injury, 0 = no effect, 100 = complete kill) at 250 g/ha (corn (Zea mays); 250 g ai/ha) of 75% and a plant injury at 31 g/ha ([6]; 31 g ai/ha) of 50%. For the same compound, the plant injury at 62 g/ha ([6]; 62 g ai/ha) was 60%, the plant injury at 125 g/ha ([6]; 125 g ai/ha) was 70% and the plant injury at 250 g/ha ([6]; 250 g ai/ha) was 85%. The plant injury at 31 g/ha (soybean (Glycine max); 31 g ai/ha) was 85%, the plant injury at 62 g/ha (soybean (Glycine max); 62 g ai/ha) was 90% and the plant injury at 125 g/ha (soybean (Glycine max); 125 g ai/ha) was 95%. The plant injury at 250 g/ha (soybean (Glycine max); 250 g ai/ha) was 95%, the pest or weed control at 31 g/ha ([7]; 31 g ai/ha) was 85% and the pest or weed control at 62 g/ha ([7]; 62 g ai/ha) was 90%. The pest or weed control at 125 g/ha ([7]; 125 g ai/ha) was 90%, the pest or weed control at 250 g/ha ([7]; 250 g ai/ha) was 98% and the pest or weed control at 31 g/ha ([8]; 31 g ai/ha) was 5%. The pest or weed control at 62 g/ha ([8]; 62 g ai/ha) was 10%, the pest or weed control at 125 g/ha ([8]; 125 g ai/ha) was 20% and the pest or weed control at 250 g/ha ([8]; 250 g ai/ha) was 60%. The pest or weed control at 31 g/ha ([9]; 31 g ai/ha) was 15%, the pest or weed control at 62 g/ha ([9]; 62 g ai/ha) was 15% and the pest or weed control at 125 g/ha ([9]; 125 g ai/ha) was 15%. It also gave a pest or weed control at 250 g/ha ([9]; 250 g ai/ha) of 50%.

— patent US20170190671A1, “BIS(ARYL)CATECHOL DERIVATIVES AS HERBICIDES” (E I DU PONT DE NEMOURS AND COMPANY, priority 2014, published 2017)
